Experimental data from US20150126573A1, “METHODS AND PHARMACEUTICAL COMPOSITIONS FOR PREVENTION OR TREATMENT OF CHRONIC OBSTRUCTIVE PULMONARY DISEASE” (INSERM (INSTITUT NATIONAL DE LA SANTE ET DE LA RECHERCHE …, priority 2012, published 2015).

Legend:
[1] = system: Primary lung fibroblasts; assay: Single 24 h exposure of non-senescent lung fibroblasts to PGE2 (accelerated senescence and related inflammation); assay type: cell-based, human; conditions: for PGE2-induced SA-β gal and p21 expression: control fibroblasts (NS-C and S-C), antagonists 10 μM; for increase in IL-6, CX3CL1, FGF2, VEGF, MMP2 and TIMP2 induced by PGE2: fibroblasts, EP2 and EP4 antagonists
Description: Primary lung fibroblasts were isolated by the explant technique (Normand J and Karasek M A. In Vitro Cell Dev Biol Anim 1995; 31:447-455) from lung specimens obtained for lung tumor resection from 25 patients with COPD and 35 subjects without clinical, morphological or functional signs of COPD (controls) (Table 1). Controls were divided into non-smoker and smoker groups (NS-C, n=10 and S-C, n=25 respectively). Smoking status (current smokers or ex-smokers, defined by smoking cessation after more than 1 year (Lapperre T S et al., Respir Res 2007; 8:85; Savale L et al. Am J Respir Crit Care Med 2009), was considered in the analysis of the different results (Table 2). Classification of COPD severity was based on the 2003 Global initiative for chronic obstructive lung disease (GOLD) criteria (Rabe K F et al., Am J Respir Crit Care Med 2007; 176:532-555). Informed consent was obtained from all patients and the study was approved by the “Comite de Protection des Personnes Ile de France IX”.
(§1) Fibroblasts were exposed to either PGE2 (0.5 to 50 ng ml^−1) or conditioned medium (CM) collected from fibroblasts incubated for 24 h. In different experiments cells were treated with inhibitors of COXs, agonists or antagonists of prostaglandin receptors EP2 and EP4, the antioxidant N-acetylcysteine (NAC), or the inhibitor of p53 transcriptional effects pifithriñ-α.
(§2) Senescence was characterized by measuring cumulative population doubling levels (PDLs) (Holz O et al., Eur Respir J 2004; 24:575-579), telomere length (Savale L et al., Am J Respir Crit Care Med 2009), senescence associated β-galactosidase activity (SA β-Gal) (Dimri G P. Cancer Cell 2005; 7:505-512), and the expression of phospho (serine 15)-p53 p16, p21, and caspase 3 by western blot, immunofluorecence and RT-qPCR analysis. The level of 29 soluble factors in conditioned medium was quantified using the Luminex technology (Millipore, Molscheim, France).

[2] = system: PGE2; assay: PGE2 quantification in fibroblast culture/conditioned medium (Prostaglandin E2 monoclonal EIA kit); assay type: cell-based, human; conditions: for reduction of the levels of PGE2 in CM: treatment of fibroblasts with COX inhibitors
Method: as §1
(§3) PGE2 was quantified by using the Prostaglandin E2 monoclonal EIA kit (Bertin Pharma, Montigny le Bretonneux, France). PGE2 receptors and enzymes involved in PGE2 synthesis were quantified by RT-qPCR. Cellular reactive oxygen species production was quantified by the DCFH-DA assay (Carter W et al., J Leukoc Biol 1994; 55:253-258).

[3] = system: fibroblasts; assay: Cellular reactive oxygen species production (DCFH-DA assay) and oxidant signalling in PGE2-exposed fibroblasts; assay type: cell-based, human; conditions: for increase in ROS, and SA β-gal and p21 expression induced by PGE2: 24 h pre-treatment of fibroblasts
Method: as §1, §3

[4] = system: Non-senescent fibroblasts from S-C and COPD patients (target fibroblasts); assay: Paracrine senescence: target fibroblasts incubated 24 h with conditioned medium (CM) from senescent fibroblasts; assay type: cell-based, human
Method: as §1, §2
Non-senescent fibroblasts from S-C and COPD patients (further called target fibroblasts) were incubated 24 h with conditioned medium (CM) from cells of the respective groups obtained at non-senescent and senescent passages. […] Both S-C and COPD CM obtained at senescent passage increased the percentage SA-β gal, phospho (serine 15)-p53, p21, and p16 protein expression, as well as IL-6, IL-8, MCP-1 and FGF-2 mRNA expression in target cells.

[5] = system: lung mRNA expression of senescence markers and cytokines; assay: Intratracheal instillation of PGE2 in mice, lung mRNA expression of senescence markers and cytokines; assay type: in vivo
Method: Male 8-week-old mice of C57BL/6 background and p53−/− animals (kindly provided by Tyler Jacks, MIT, Cambridge) were intratracheally instilled with either PGE2 (1 ng·ml^−1) or vehicle (DMSO 1/10000). Instilled volume was 50 μl. Twenty-four and 48 h after instillation mice were sacrificed and analysis of lung mRNA expression of senescence markers and cytokines were performed. Studies were conducted in compliance with INSERM guidelines regarding the fair treatment of animals.

[6] = system: S-C and COPD fibroblasts; assay: Replicative senescence of S-C and COPD fibroblasts during successive passages (repeated PGE2 exposure or COX inhibitors); assay type: cell-based, human
Method: as §1, §2
Finally, the inventors investigated if endogenous PGE2 was involved in replicative senescence.

[7] = system: human dermal fibroblasts; conditions: Yang H H et al., Biogerontology 2011; cited from earlier work
[8] = COPD fibroblasts, both antagonists (EP2 + EP4) used simultaneously, versus one antagonist
[9] = COPD fibroblasts, one antagonist alone (10 μM), PGE2 10 ng·ml−1
[10] = pre-treatment of target fibroblasts
[11] = wild type mice, single intra-tracheal instillation
[12] = repeated exposures to PGE2 at 1 ng·ml−1, passage 3 to 9
[13] = repeated exposures to PGE2 at 1 ng·ml−1, passage 3 to 9, S-C and COPD fibroblasts, greater in COPD

Which results are given for `O=C1CC[C@H](/C=C/[C@@H](O)Cc2ccccc2)N1CCCCCCc1nn[nH]n1` [CAY10598]?
SA β-gal and p21 expression (agonists, no PGE2) ([1]; COPD and control fibroblasts, both agonists (EP2 + EP4) used simultaneously, versus one agonist): small but significant higher effect; SA β-gal and p21 expression (agonist alone, no PGE2) ([1]; COPD and control fibroblasts, one agonist): mimicked PGE2 effects

For `COc1ccc2c(c1)c(CC(=O)O)c(C)n2C(=O)c1ccc(Cl)cc1` [indomethacin], which “reduction of the levels of PGE2 in CM” value [2] is on record?
Its value is 60%.

And the “increase in ROS, and SA β-gal and p21 expression induced by PGE2” value [3]?
Its value is “significantly reduced”.

And the “percentage of SA β-gal positive cells and p21 protein expression” value ([4]; target cells incubated with CM from fibroblasts treated with COX inhibitor)?
Its value is “parallel significant reduction”.

For `CC(=O)N[C@@H](CS)C(=O)O` [N-acetyl-cysteine], which “increase in ROS, and SA β-gal and p21 expression induced by PGE2” value [3] is on record?
The value was “significantly reduced”.

Which results are given for `CCOc1c2c(c(OCC)c3ccccc13)C(=O)N(c1ccc(CC(=O)NS(=O)(=O)c3ccccc3)cc1)C2` [GW627368X]?
PGE2-induced SA β-gal and p21 expression [1, 8]: small but significant higher effect; PGE2-induced SA β-gal and p21 expression [1, 9]: significantly reduced; PGE2-induced SA-β gal and p21 expression ([1]; PGE2 10 ng·ml−1): only the simultaneous application of both antagonists decreased; increase in IL-6, CX3CL1, FGF2, VEGF, MMP2 and TIMP2 induced by PGE2 [1]: both antagonists were needed to suppress

Which “increase in FGF-2 mRNA expression induced by CM” value [4, 10] does the source give for `Cc1ccc(C(=O)Cn2c3c(sc2=N)CCCC3)cc1` [pifithrin-α] here?
The value was “not modified”.

And the “increase in IL-6, IL-8 and MCP-1 mRNA expression induced by CM” value [4, 10]?
The value was “suppressed”.

And the “increase in SA β-gal positive cells and induction of p21 protein by S-C and COPD senescent CM” value [4, 10]?
The value was “suppressed”.

And the “PGE2-induced SA β-gal and p21 expression” value ([1]; COPD and control fibroblasts)?
Its value is “completely prevented”.

What about the “increase in IL6, CX3CL1, MMP-2 and TIMP-2 levels induced by PGE2” value ([1]; control and COPD fibroblasts) of the same compound?
The value was “completely prevented”.

What about the “increase in p16 induced by PGE2” value ([1]; control and COPD fibroblasts) of the same compound?
Its value is “without modification”.

With `CCCCC[C@H](O)/C=C/[C@H]1[C@H](O)CC(=O)[C@@H]1C/C=C\CCCC(=O)O` [PGE2, prostaglandin E2] as the compound, how does the “synthesis of endogenous PGE2” value ([2]; fibroblasts exposed to exogenous PGE2) read?
Its value is “induced”.

What about the “COX2 mRNA levels” value ([5]; mice, at 48 h) of the same compound?
The value was “increased”.

What about the “induction of p21 and inflammatory mediators” value ([5]; p53−/− mice) of the same compound?
Its value is “not observed”.

And the “p16 expression in lung” value [5, 11]?
The value was “no change”.

What about the “pulmonary expression of inflammatory mediators (IL-6, CX3CL1, FGF2, VEGF, MMP2)” value [5, 11] of the same compound?
Its value is “induced”.

And the “pulmonary expression of p53 and p21” value ([5]; wild type mice, single intra-tracheal instillation, at 24 h and 48 h respectively)?
The value was “induced”.

And the “activation of the DNA damage-activated transcription factor ATM” value ([3]; PGE2-exposed COPD cells, single exposure)?
The value was “No activation”.

What about the “concentration of intracellular ROS and expression of the oxidant-sensitive protein HO-1” value ([3]; fibroblasts incubated with PGE2) of the same compound?
Its value is “increased in a dose-dependent manner only in fibroblasts from COPD patients”.

What about the “expression of phosphorylated-ATM” value ([6]; COPD fibroblasts, repeated exposure to PGE2) of the same compound?
Its value is “enhanced”.

What about the “expression of MCP3” value [6, 12] of the same compound?
Its value is “not modified”.

What about the “reduction in telomeres length” value [6, 12] of the same compound?
Its value is “did not modify”.

And the “induction of SA-β gal, p21, p16, COX2 and HO-1 expression, and levels of IL-6, IL-8, GRO, VEGF and CX3CL” value [6, 13]?
The value was “enhanced”.

What about the “senescence-associated cumulative PDL” value [6, 13] of the same compound?
The value was “further reduced”.

And the “cleaved caspase-3 (and phosphatidyl serine residues)” value ([1]; fibroblasts of the three groups of patients after PGE2)?
The value was “absence”.

And the “percentage of cells expressing SA β-gal, p21 and p16 protein” value ([1]; non-senescent NS-C, S-C and COPD fibroblasts, 24 h incubation with PGE2 (0.5 to 50 ng ml−1), higher in COPD)?
The value was “dose-response increase”.

What about the “levels of IL-6, CX3CL1, VEGF, FGF2, MMP-2 and TIMP-2 in cell culture supernatant” value ([1]; non-senescent fibroblasts, 24 h incubation with PGE2, higher in COPD) of the same compound?
Its value is “increase”.

And the “concentration from which the effect of PGE2 (aggravated replicative senescence) was observed” value [7]?
The value was ≥ 5 µM.

Which “PGE2-induced SA β-gal and p21 expression” value [1, 8] does the source give for `CC(C)Oc1ccc2c(=O)c3cc(C(=O)O)ccc3oc2c1` [AH6809] here?
Its value is “small but significant higher effect”.

And the “PGE2-induced SA β-gal and p21 expression” value [1, 9]?
The value was “significantly reduced”.

And the “PGE2-induced SA-β gal and p21 expression” value ([1]; PGE2 10 ng·ml−1)?
The value was “only the simultaneous application of both antagonists decreased”.

And the “increase in IL-6, CX3CL1, FGF2, VEGF, MMP2 and TIMP2 induced by PGE2” value [1]?
Its value is “both antagonists were needed to suppress”.

For `Cc1ccc(-c2cc(C(F)(F)F)nn2-c2ccc(S(N)(=O)=O)cc2)cc1` [celecoxib], which “reduction of the levels of PGE2 in CM” value [2] is on record?
The value was 60%.
